Laboratory results published in article PMC6697720, “Saturation of acyl chains converts cardiolipin from an antagonist to an activator of Toll-like receptor-4” (Cellular and Molecular Life Sciences: CMLS, 2019).

Tested on: primary BMDM cells
Test: TNF-α and IP-10 secretion in primary BMDMs incubated with CL or LPS alone
Type: cell-based, murine
Details: overnight
Experimental: Bone marrow was isolated from femurs and tibias of 10-week-old C57BL/6 mice killed by cervical dislocation. Briefly, bone marrow was flushed out with a syringe filled with DMEM, pelleted down, and resuspended and homogenized in complete medium (DMEM supplemented with 10% heat-inactivated FBS from South America, 2 mM glutamine, 50 U/mL penicillin, 50 μg/mL streptomycin, and 20% of supernatant taken from L929 cells). The cell suspension generated thereafter was then maintained in petri dishes for 7 days.
Primary BMDM cells were detached from petri dishes and seeded the day before the experiment in 96-well plates at 0.75 × 10^6 cells/mL (200 μL/well).
After stimulation, supernatants were collected, centrifuged, and assayed for cytokine secretion, while cells were assayed for viability.
TNF-α and IP-10 were quantified in cell supernatants using DuoSet ELISA kits from R&D Systems and human IL-1β using Instant ELISA™ Kit from Invitrogen, according to the manufacturer’s instructions. Absorbance was read with a BioTek Synergy HT Microplate Readers. […]
Primary BMDM cells were incubated overnight with medium (ctrl) or C14:0 CL at the indicated concentrations. TNF-α and IP-10 were measured by ELISA in collected supernatants. […]

CCCCCCCCCCCCCC(=O)OC[C@H](COP(=O)(O)OCC(O)COP(=O)(O)OC[C@@H](COC(=O)CCCCCCCCCCCCC)OC(=O)CCCCCCCCCCCCC)OC(=O)CCCCCCCCCCCCC (some centres unmarked) [C14:0 CL]
IP-10 secretion: induces
TNF-α secretion: induces
